Measurements from patent US7745404B2, “Use of calcitonin and calcitonin-like peptides to treat and prevent multiple sclerosis” (Wisconsin Alumni Research Foundation, priority 2002, dated 2010).

How the values were obtained:
Assay type in all cases: in vivo
[1] = test system: EAE in female C57BL/6J mice; assay: EAE in female C57BL/6J mice, calcitonin and Vit D, Example 4; settings: for EAE score: female C57BL6J mice, compared to 1 ng Vit D alone (FIG. 5, Table 6); for Incidence: vehicle pump, animals sick/total
Experimental: To determine the effect of calcitonin and Vit D on EAE in C57BL/6J mice, female C57BL/6J mice were maintained on standard chow until eight weeks of age, and then switched to a purified diet containing 0.87% calcium supplemented with 1 ng or 30 ng of 1,25-(OH)2D3 for one week prior to EAE immunization.
(§1) EAE was induced as described above. Mice were injected with 200 ng of B. pertussis toxin on the day of immunization and 48 hours later.
(§2) sCT was prepared as described above. One week after immunization, mice were weighed and the pumps were filled with vehicle or 30 μg/kg per day of sCT of body weight to each mouse. The pumps were surgically placed subcutaneously in the upper back of mice anesthetized with 2% isofluorane. At the end of the study, successful delivery of the sCT was assessed by two methods. First, the fluid volume remaining in the pump reservoirs was measured. Second, the remaining sCT was pooled and intraperitoneally injected into C57BL/6J mice that were not included in the initial study. Serum calcium measurements were taken six hours after injection to determine if sCT maintained its bioactivity throughout the study.
(§3) Mice were examined daily, for over two weeks, for clinical signs of EAE utilizing the following scoring system as described above.
(§4) Blood samples were collected at multiple time-points and prepared and analyzed as described above. Likewise, statistical analysis was performed as noted above.

[2] = Serum calcium in female C57BL/6J mice, Example 4; settings: 30 ng Vit D (regardless of whether sCT was provided) compared to 1 ng Vit D
Experimental: (§5) Collected blood samples were centrifuged at 6000 rpm for 15 minutes; followed by another 60-second spin at 14000 rpm. Serum samples were diluted in 0.1% LaCl3 and serum calcium values were measured using a Perkin Elmer atomic absorption spectrometer.
as §4

[3] = Serum calcium in female C57BL/6J mice, Example 3
Experimental: as §5
(§6) Blood samples were collected at multiple time-points and prepared and analyzed as described above. Likewise, statistical analysis was as performed as noted above.

[4] = test system: EAE in female C57BL/6J mice; assay: EAE in female C57BL/6J mice, sCT started prior to immunization, Example 5
Experimental: To determine the effect of calcitonin in C57BL/6J mice on EAE prior to immunization, female mice were maintained on a standard chow diet prior to and following EAE immunization.
as §1
as §2, with “However, two days prior to” for “One week after”, “6” for “30”
Mice were examined daily, for over two weeks, for clinical signs of EAE utilizing the scoring system described above.
as §4

[5] = test system: experimental autoimmune encephalomyelitis (EAE) in male 1α-OH KO mice; assay: EAE (murine model of MS) in male 1α-OH KO mice, Example 1
Experimental: (§7) To determine the effect of calcitonin on the murine model of MS, experimental autoimmune encephalomyelitis (EAE), 25-hydroxyvitamin D3-1α-hydroxylase knockout mice (1α-OH KO) were maintained on a purified diet containing 0.87% calcium and 1 ng 1,25-(OH)2D3 (Vit D) for two to three weeks prior to EAE immunization. EAE was induced at six to ten weeks of age by subcutaneous immunization of 200 μg of the immunodominant peptide to myelin oligodendrocyte glycoproprotein (MOG35-55).
(§8) The peptide was synthesized at University of Wisconsin Biotechnology Center using standard 9-fluorenyl-methoxy-carbonyl chemistry. The peptide was dissolved in Freund's complete adjuvant (CFA; Sigma; St. Louis, Mo.) containing 4 mg/ml of heat-inactivated Mycobacterium tuberculosis […] (Difco Laboratories; Detroit, Mich.).
(§9) Mice were injected with 200 ng of Bordetella pertussis toxin (List Biological Laboratories, Campbell, Calif.) on the day of immunization and 48 hours later. The mice were examined daily for clinical signs of EAE utilizing the following scoring system: 0, no sign; 1, limp tail; 2, hindlimb weakness; 3, hindlimb paralysis; 4, forelimb paralysis; 5, moribund or death.
(§10) Salmon calcitonin (sCT; Bachem California; Torrence, Calif.) was dissolved to a concentration of 1 mg/ml in a vehicle containing 150 mM NaCl, 1 mM HCl, and 2% heat inactivated sera. The serum used was from 1α-OH KO mice matched by sex to the group of mice receiving the treatment. SCT was chronically administered using Alzet osmotic minipumps model 1002 (Durect Corp.; Cupertino, Calif.) calibrated to deliver 0.25 μl/hour over a 15 day period.
(§11) Ten days after immunization, mice were weighed and the pumps were filled with either vehicle or sCT diluted to deliver 6 μg/kg of body weight per day to each mouse. The pumps were surgically placed subcutaneously in the upper back of mice anesthetized with 2% isofluorane. At the end of the study, successful delivery of the sCT was assessed by two methods. First, the fluid volume remaining in the pump reservoirs was measured. Second, the remaining sCT was pooled and intraperitoneally injected into 1α-knockout mice that were not included in the initial study. Serum calcium measurements were taken six hours after injection to determine if sCT maintained its bioactivity throughout the study. Blood samples were collected at multiple time-points throughout the study to monitor changes in serum calcium levels. Blood was obtained by the orbital bleed method. Approximately 150 μl was collected per mouse.
(§12) Statistical analysis was performed using the two-tailed Fisher exact probability test on incidence rates and the unpaired Student's t-test on all other measurements. Values of P<0.05 were considered statistically significant.

[6] = Serum calcium in 1α-OH KO mice, Example 1; settings: 6 μg/kg of calcitonin
Experimental: as §11, §5

[7] = test system: experimental autoimmune encephalomyelitis (EAE) in female 1α-OH KO mice; assay: EAE (murine model of MS) in female 1α-OH KO mice, Example 1
Experimental: as §7, §8, §9, §10, §11, §12

[8] = test system: EAE in female C57BL/6J mice; assay: EAE in female C57BL/6J mice, sCT dose levels, Example 3; settings: for % Sick / Incidence / Severity / Mean Onset Day: female C57BL/6J mice, standard chow; for Incidence: animals sick/total; for Severity: EAE score 0-5; for Mean Onset Day: days post immunization
Source text: To determine the effect of calcitonin on EAE in C57BL/6J mice (C57BL6 mice from Jackson Labs), female mice were maintained on a standard chow diet prior to and following EAE immunization. The C57BL6J strain was chosen primarily because it is one of the few strains susceptible to MOG-induced EAE, and also because the 1α-KO has been backcrossed into the C57BL6J strain. The diet was changed primarily because the mice being used were wild-type and no longer required the supplemented 1,25(OH)2D3 that the 1α-KO mice do. Additionally, we have typically seen higher incidence rates when animals are maintained on a regular chow diet versus the purified diet.
as §1
(§13) sCT was prepared as described above. One week after immunization, mice were weighed and the pumps were filled with vehicle, 6 μg/kg of sCT per day of body weight or 60 μg/kg of sCT per day of body weight to each mouse. The pumps were surgically placed subcutaneously in the upper back of mice anesthetized with 2% isofluorane. At the end of the study, successful delivery of the sCT was assessed by two methods. First, the fluid volume remaining in the pump reservoirs was measured. Second, the remaining sCT was pooled and intraperitoneally injected into C57BL/6J mice that were not included in the initial study. Serum calcium measurements were taken six hours after injection to determine if sCT maintained its bioactivity throughout the study.
as §3, §6

[9] = test system: EAE in female C57BL6h mice; assay: EAE in female C57BL6h mice, Example 2
Experimental: To determine the effect of calcitonin on EAE in mice, female mice were maintained as described above. The strain of mouse used in this experiment was C57BL6 which was obtained from Harlan Labs and therefore should be designated C57BL6h. The only difference from the experiment above is that these mice were fed a regular chow diet (Formulab Chow 5008, PMI Labdiet).
as §1
as §13, with “6” for “6 μg/kg of sCT per day of body weight or 60”, “into” for “into C57BL/6J”
Mice were examined daily, for over two weeks, for clinical signs of EAE utilizing the following scoring system described above.
as §4

[10] = female C57BL/6J, 0.87% calcium diet with 1 ng Vit D
[11] = female C57BL/6J, 0.87% calcium diet with 30 ng Vit D

C=C1/C(=C\C=C2/CCC[C@]3(C)[C@@H]([C@H](C)CCCC(C)(C)O)CC[C@@H]23)C[C@@H](O)C[C@@H]1O [Vit D, 1α,25-dihydroxyvitamin D3]
EAE score ([1]; 30 ng Vit D): delayed and diminished the EAE score | % Sick [1, 10]: 67.0% | Incidence [1, 10]: 6/9 sick | Severity ([1]; female C57BL/6J, 0.87% calcium diet with 1 ng Vit D, EAE score 0-5): 2.9 ± 0.9 | Mean Onset Day ([1]; female C57BL/6J, 0.87% calcium diet with 1 ng Vit D, days post immunization): 15 ± 2 days | % Sick [1, 11]: 0.0% | Incidence [1, 11]: 0/8 sick | serum calcium levels [2]: elevated

Salmon calcitonin [sCT]
EAE score ([1]; sCT (30 μg/kg per day)): delayed and diminished the EAE score | serum calcium levels ([3]; 6 μg/kg of calcitonin): initially lowered | serum calcium levels ([3]; 60 μg/kg of calcitonin): initially lowered | EAE score ([4]; female C57BL6J mice administered 6 μg/kg of calcitonin from two days prior to immunization, compared to vehicle alone (FIG. 6)): delayed and diminished the EAE score | Incidence ([4]; female C57Bl/6J mice, standard chow, sCT 6 μg/kg per day by minipump from two days prior to immunization, animals sick/total): 19/20 sick | % Sick ([4]; female C57Bl/6J mice, standard chow, sCT 6 μg/kg per day from two days prior to immunization): 95.0% | Severity ([4]; female C57Bl/6J mice, standard chow, sCT 6 μg/kg per day from two days prior to immunization, EAE score 0-5): 2.9 ± 1.1 | Mean Onset Day ([4]; female C57Bl/6J mice, standard chow, sCT 6 μg/kg per day from two days prior to immunization, days post immunization): 15 ± 2 days | % Sick ([5]; male 1α-KO mice, 0.87% calcium + 1 ng Vitamin D diet, sCT 6 μg/kg per day by minipump): 28.6% | Severity ([5]; male 1α-KO mice, 0.87% calcium + 1 ng Vitamin D diet, sCT 6 μg/kg per day by minipump, EAE score 0-5): 2.5 ± 0.7 | Mean Onset Day ([5]; male 1α-KO mice, 0.87% calcium + 1 ng Vitamin D diet, sCT 6 μg/kg per day by minipump, days post immunization): 30 ± 8 days | Incidence ([5]; male 1α-KO mice, 0.87% calcium + 1 ng Vitamin D diet, sCT 6 μg/kg per day by osmotic minipump from ten days after immunization, animals sick/total): 2/7 sick | reduction in the EAE score, male versus female ([5]; male 1α-OH KO mice treated with calcitonin compared with female 1α-OH KO mice treated with calcitonin): similar, but lesser, reduction in the EAE score | EAE score ([5]; male 1α-OH KO mice, compared to vehicle alone (FIG. 2, Table 3)): lowered the EAE score | serum calcium levels ([6]; female 1α-OH KO mice): generally unaffected | serum calcium levels ([6]; male 1α-OH KO mice): unaffected | % Sick ([7]; female 1α-KO mice, 0.87% calcium + 1 ng Vitamin D diet, sCT 6 μg/kg per day by minipump from ten days after immunization): 42.9% | Severity ([7]; female 1α-KO mice, 0.87% calcium + 1 ng Vitamin D diet, sCT 6 μg/kg per day by minipump, EAE score 0-5): 1.3 ± 0.6 | Mean Onset Day ([7]; female 1α-KO mice, 0.87% calcium + 1 ng Vitamin D diet, sCT 6 μg/kg per day by minipump, days post immunization): 41 ± 11 days | Incidence ([7]; female 1α-KO mice, 0.87% calcium + 1 ng Vitamin D diet, sCT 6 μg/kg per day by osmotic minipump from ten days after immunization, animals sick/total): 3/7 sick | EAE score ([7]; female 1α-OH KO mice, compared to vehicle alone (FIG. 1, Table 2)): delayed and diminished the EAE score | EAE score ([8]; female C57BL6J mice administered 60 μg/kg of calcitonin, compared to vehicle alone (FIG. 4, Table 5)): delayed and diminished the EAE score | % Sick ([8]; 6 μg/kg sCT): 82.0% | Incidence ([8]; 6 μg/kg sCT per day by minipump from one week after immunization): 9/11 sick | Severity ([8]; 6 μg/kg sCT): 3.8 ± 0.6 | Mean Onset Day ([8]; 6 μg/kg sCT): 14 ± 3 days | % Sick ([8]; 60 μg/kg sCT): 67.0% | Incidence ([8]; 60 μg/kg sCT per day by minipump from one week after immunization): 6/9 sick | Severity ([8]; 60 μg/kg sCT): 3.5 ± 1.3 | Mean Onset Day ([8]; 60 μg/kg sCT): 16 ± 2 days | EAE score ([9]; compared to vehicle alone (FIG. 3)): delayed and diminished the EAE score | % Sick ([9]; sCT 6 μg/kg per day by minipump from one week after immunization): 25.0% | Severity ([9]; sCT 6 μg/kg per day by minipump from one week after immunization, EAE score 0-5): 2.0 ± 0.7 | Mean Onset Day ([9]; sCT 6 μg/kg per day by minipump from one week after immunization, days post immunization): 14 ± 1 days | Incidence ([9]; sCT 6 μg/kg per day by minipump from one week after immunization, table title: 0.87% calcium + 1 ng Vitamin D diet (text: regular chow), animals sick/total): 2/8 sick
